Results as given in patent publication US20250115571A1, “OXOPIPERAZINE DERIVATIVES” (Inthera Bioscience AG, priority 2017, published 2025).

Experiments:
Format in all cases: cell-based
HCT116 = assay: 9-day colony survival assay (CFA); conditions: Homo sapiens, HCT-116, 216 h, HCT116 (colon), read-out: GI50 (50% growth inhibition)
CaSki = assay: 9-day colony survival assay (CFA); conditions: Homo sapiens, Ca-Ski, 216 h, CaSki (cervix), read-out: GI50 (50% growth inhibition)
From the text: Cell culture. CaSki cells (cervical cancer) were obtained from CLS GmbH, Eppelheim, Germany (cat #300145) and subcultured in ready-to-use RPMI1640 Media (CLS #820700) after addition of “Antibiotic Antimycotic Solution” (Sigma-Aldrich, St Louis, USA) at 1:100 dilution. The cells were expanded, and aliquots kept frozen in liquid nitrogen according to manufacturer's instructions; tested for mycoplasma contamination and genotyped (Microsynth AG, Balgach, Switzerland). Once thawed, aliquots were passaged every second or third day at a seed density of 20′000 cells/cm^2; and used for a maximum of twenty passages. For passaging, cell culture flasks were rinsed twice with Ca++/Mg++-free Phosphate-Buffered Saline (DPBS, CLS #860015) and incubated with Accutase (CLS #830100) for 15 min at 37° C. Cells were resuspended in a four-fold volume of ready-to-use RPMI, centrifuged at 300 g for ten minutes, the supernatant discarded and the cells resuspended in ready-to-use RPMI1640 by pipetting up and down five times with a serological pipette. Cell density was determined with a Via-1 Cassette (Chemometec, Allerod, Denmark) on a Nucleocounter NC 3000 (Chemometec). Where not stated, consumables and chemicals were purchased from well-known suppliers.
Preparation of the cells for CFA. Cell culture flasks were rinsed twice with DPBS and incubated with Accutase for 15 min at 37° C. Cells were resuspended in a four-fold volume of ready-to use RPMI, centrifuged at 300 g for ten minutes, the supernatant discarded and the cells resuspended in ready-to-use RPMI1640 by pipetting up and down ten times with a serological pipette. Cell density was determined with a Via-1 Cassette on a Nucleocounter NC 3000. The required amount of cells was first diluted 1:10 in ready-to-use RPMI; cells pipetted five times up-down with a serological pipette; and the 1:10 solution added to the final volume needed for the whole assay setup. Cells were mixed again by pipetting up and down twenty times with a serological pipette. The cell density used for the experiment was of 140 cells/ml.
Seeding. Cells were seeded row-wise in 12-well plates, while triplicates were treated column-wise (i.e. all the first rows were seeded first, then the second rows, and finally the third rows). One and a half ml cell suspension solution (a total of 210 cells) were added per well.
Treatment. Compound stock solutions were prepared at a concentration of 30 mM in 50% DMSO/50% water; and diluted in the same solution so that the volume added to the wells was of 2.5 μl and the final DMSO well concentration of 0.08%. Untreated cells (negative controls) were incubated in a) medium only; and b) 0.08% DMSO. […] The plates were swirled gently after addition of the compounds and the cells incubated for nine days at 37° C. Culture incubation solutions were replaced after five days.
Staining. Colonies were washed twice with ice-cold DPBS and fixed on ice with 1 ml ice-cold 10% methanol solution for 30 min. The methanol solution was removed and colonies incubated with 0.1% Crystal Violet/DBPS for 20 min at room temperature. The wells were rinsed consecutively with 1.5, 1, and 0.5 ml water at room temperature and let dry.
Destaining and data evaluation. […] Absorbance was measured at 600 nm with a SpectraMax M2e reader (Molecular Devices, Sunnyvale, CA, USA). Percentage of colony formation was calculated from the average of the well triplicates compared to the untreated DMSO controls after subtraction of blank values. […]

SNU-5 = assay: 5-day cell proliferation assay (CTG); conditions: Homo sapiens, 120 h, SNU-5, Stomach/Gastric
Experimental: (§1) For screening using a proliferation assay, the cells used were cultured at 37° C. with 5% CO2, except for those being cultured with L-15 medium (37° C. and 100% air, TABLE 7). Compound stock solutions (10 mM) were made in sterile water, aliquoted and stored at room temperature. Cisplatin was used as reference Control. Plastic consumables, culture media and supplements were purchased from well-known suppliers (TABLE 8).
(§2) Cell seeding (day −1). When necessary, cells were trypsinized using standard methods (see e.g. example 01). Cells were collected and resuspended in 5-6 mL of appropriate culture medium, counted and diluted to the needed density. Fifty-four μl (microliter) cells were seeded per well in a 384-well plate. Extra four wells per cell line were seeded on an additional plate for Day 0 reading (baseline cell density). Cells were incubated at 37° C. overnight.
(§3) Compound treatment and Day 0 reading (day 0). Tenfold final concentration of test compounds and Cisplatin were prepared in cell culture media (work dilutions). Six μl of work dilution solutions were dispensed into the corresponding wells in 384-well plates to bring the total volume up to 60 μl. Conditions were tested in triplicate. The plates were then incubated at 37° C. for five days. For the day 0 reading, 30 μl of CTG and 6 μl cell culture medium were added to the day 0 plates, contents mixed for 2 min on a plate shaker, and the plates incubated for 10 min at room temperature in the dark. Luminescence was recorded on an EnVision Multi Label Reader (2104-0010A, PerkinElmer, USA).
(§4) Endpoint CTG reading (day 5). The amounts of cells in the plates was determined by endpoint CTG-test. Thirty μl of CTG were added to the 60 μl of cell culture per well, contents mixed for 2 min on a plate shaker, and the plates incubated for 10 min at room temperature in the dark. Luminescence was recorded on an EnVision Multi Label Reader.
(§5) Data analysis. Fifty percent growth inhibition concentrations (GI50) were calculated based on percentage of control data (untreated cells) from each cell line (TABLE 5 (this example) and TABLE 6). Curves were fitted using a nonlinear regression model with a sigmoidal dose response. Examples of obtained curves are depicted in FIG. 2A-2F.

SW48 = assay: 5-day cell proliferation assay (CTG); conditions: Homo sapiens, 120 h, SW48, Colorectal
Experimental: as §1, §2, §3, §4, §5

HS 746.T = assay: 5-day cell proliferation assay (CTG); conditions: Homo sapiens, Hs746T, 120 h, Stomach/Gastric
Experimental: as §1, §2, §3, §4, §5

SW948 = assay: 5-day cell proliferation assay (CTG); conditions: Homo sapiens, 120 h, SW948, Colorectal
Experimental: as §1, §2, §3, §4, §5

HDFA (fibroblast) = assay: 5-day cell proliferation assay (CTG); conditions: Homo sapiens, 120 h, Skin, highest tested concentration 10 μM
Experimental: as §1, §2, §3, §4, §5

PC3 = assay: 9-day colony survival assay (CFA); conditions: Homo sapiens, PC-3, 216 h, PC3 (prostate), read-out: GI50 (50% growth inhibition)

For `CC(C)C[C@@H]1NCCN([C@@H](CC(C)C)C(=O)N2CCC3(C[C@@H]2C)OCC(CN2CCCC2)CO3)C1=O` (stereo partly drawn) [Compound 258, (3S)-1-[(2S)-4-methyl-1-oxo-1-[(3s,6s,8S)-8-methyl-3-(pyrrolidin-1-ylmethyl)-1,5-dioxa-9-azaspiro[5.5]undec-an-9-yl]pentan-2-yl]-3-(2-methylpropyl)piper-azin-2-one (^≠), isomer Z], the GI50 (HCT116) was 1.5 nM, the GI50 (CaSki) was 2 nM and the GI50 (SNU-5) was 4 nM. The GI50 (SW48) was 9 nM, the GI50 (HS 746.T) was 8 nM and the GI50 (SW948) was 10 nM. The GI50 (HDFA (fibroblast)) was > 10000 nM and the GI50 (PC3) was 3 nM.
`CC(C)C[C@@H]1NCCN([C@@H](CC(C)C)C(=O)N2CCC3(C[C@@H]2C)OCC(CN2CCC4(CC2)CC4)CO3)C1=O` (stereo partly drawn) [Compound 279, (3S)-1-[(2S)-4-methyl-1-oxo-1-[(3s,6s,8S)-3-{6-azaspiro[2.5]octan-6-ylmethyl}-8-methyl-1,5-dioxa-9-azaspiro[5.5]undec-an-9-yl]pentan-2-yl]-3-(2-methylpropyl)piper-azin-2-one (^≠), isomer Z] was tested, and the GI50 (HCT116) was 1 nM, the GI50 (CaSki) was 4 nM and the GI50 (SNU-5) was 3 nM. For the same compound, the GI50 (SW48) was 6 nM, the GI50 (HS 746.T) was 5 nM and the GI50 (SW948) was 3 nM. For the same compound, the GI50 (HDFA (fibroblast)) was > 10000 nM and the GI50 (PC3) was 1.5 nM.
In the case of `CC(C)C[C@@H]1NCCN([C@@H](CC(C)C)C(=O)N2CCC3(C[C@@H]2C)OCC(CN2CCC2)CO3)C1=O` (stereo partly drawn) [Compound 284, (3S)-1-[(2S)-4-methyl-1-oxo-1-[(3s,6s,8S)-3-(azetidin-1-ylmethyl)-8-methyl-1,5-dioxa-9-azaspiro[5.5]undec-an-9-yl]pentan-2-yl]-3-(2-methylpropyl)piper-azin-2-one (^≠), isomer Z], the GI50 (HCT116) is reported as 1.5 nM, the GI50 (CaSki) is reported as 6 nM and the GI50 (SNU-5) is reported as 6 nM. The GI50 (SW48) was 14 nM, the GI50 (HS 746.T) was 14 nM and the GI50 (SW948) was 12 nM. The GI50 (HDFA (fibroblast)) was > 10000 nM and the GI50 (PC3) was 3 nM.
